# Experimental data: US12502384B2, “Pharmaceutical composition containing nitroxoline prodrug, and preparation method and application therefor” (Jiangsu Yahong Meditech Co., Ltd., priority 2020, dated 2025)
# Assay: Stability test: impurity content by HPLC (self-control)
# Type: physicochemical
# Conditions: for Impurity (%)/RRT relative retention time 0.71 / Impurity (%)/RRT relative retention time 0.78 / Impurity (%)/RRT relative retention time 0.83 / Impurity (%)/RRT relative retention time 0.89 / Impurity (%)/RRT relative retention time 0.9 / Impurity (%)/RRT relative retention time 1.06 / Impurity (%)/RRT relative retention time 1.95 / Impurity (%)/RRT relative retention time 0.93 / Impurity (%)/RRT relative retention time 1.97: — = not detected
# Method: The impurity content of the immediate-release tablets obtained in Examples 1, 3, and 8 was determined respectively to evaluate the stability, and the steps were as follows:
# 1. Preparation Method for Test Solution I and Test Solution II
# About 25 mg of a batch of nitroxoline prodrug was added to a 50 mL volumetric flask, followed by the addition of about 30 mL of acetonitrile. The resulting solution was ultrasonicated for 10 minutes, cooled to room temperature, diluted with acetonitrile to the constant volume, and mixed well. An appropriate amount of the above solution was filtered to obtain test solution I.
# According to the above method, another batch of nitroxoline prodrug was used to obtain test solution II.
# Test solution I was used to study the impurity content under normal temperature and different storage times (0 h, 6 h, 12 h, 18 h, 24 h), and the impurity content under 2 to 8° C. and a storage time of 24 hours.
# Test solution II was used to study the impurity content under two different stability conditions (intermediate condition of 30° C./65% RH and accelerated condition of 40° C./75% RH, as shown in Table 2).
# 2. […]
# 3. Preparation Method for 0.2% Self-Control Solution
# 2 mL of test solution I, test solution II or test solution III was added to a 100 mL volumetric flask, and diluted with acetonitrile to the constant volume. 1 mL of the resulting solution was added to a 10 mL volumetric flask, diluted with acetonitrile to the constant volume, and mixed well to obtain the desired solution.
# 4. Determination of Impurity Content
# Test solution I was placed at room temperature, and samples were collected respectively at 0 h, 6 h, 12 h, 18 h, 24 h. 0.2% self-control solution was formulated. Samples were injected respectively, and the single impurity content and total impurity content in test solution I at each time point were calculated according to the self-control.
# Test solution I was placed in a refrigerator (2 to 8° C.), and samples were collected at 24 h. 0.2% self-control solution was formulated. Samples were injected respectively, and the single impurity content and total impurity content in test solution I at this time point were calculated according to the self-control.
# Samples were collected from Test solution II at 0 day, at one month under the intermediate condition (30° C./65% RH) and at one month under the accelerated condition (40° C./75% RH). 0.2% self-control solution was formulated. Samples were injected respectively, and the single impurity content and total impurity content in test solution II at this time point were calculated according to the self-control. […]
# [1] = Accelerated condition (40° C./75% RH) one month
# [2] = Intermediate condition (30° C./65% RH) one month
structure (smiles),measurement,setting,value
"CC(C)C(=O)N1CCC[C@H]1C(=O)OCOc1ccc([N+](=O)[O-])c2cccnc12 [nitroxoline prodrug, (S)-(5-nitroquinolin-8-yloxy)methyl 1-isopropionylpyrrolidine-2-carboxylate]",Total impurity (%),[1],1.038%
same,Impurity (%)/RRT relative retention time 0.71,[1],0.005%
same,Impurity (%)/RRT relative retention time 0.78,[1],0.792%
same,Impurity (%)/RRT relative retention time 0.83,[1],0.02%
same,Impurity (%)/RRT relative retention time 0.89,[1],0.018%
same,Impurity (%)/RRT relative retention time 0.9,[1],0.012%
same,Impurity (%)/RRT relative retention time 1.06,[1],0.173%
same,Impurity (%)/RRT relative retention time 1.95,[1],0.018%
same,Total impurity (%),[2],0.333%
same,Impurity (%)/RRT relative retention time 0.78,[2],0.117%
same,Impurity (%)/RRT relative retention time 0.89,[2],0.018%
same,Impurity (%)/RRT relative retention time 0.9,[2],0.011%
same,Impurity (%)/RRT relative retention time 1.06,[2],0.169%
same,Impurity (%)/RRT relative retention time 1.95,[2],0.018%
same,Total impurity (%),Storage time 0 h(RT),0.192%
same,Impurity (%)/RRT relative retention time 0.89,Storage time 0 h(RT),0.055%
same,Impurity (%)/RRT relative retention time 0.9,Storage time 0 h(RT),0.055%
same,Impurity (%)/RRT relative retention time 0.93,Storage time 0 h(RT),0.082%
same,Total impurity (%),Storage time 0 day,0.261%
same,Impurity (%)/RRT relative retention time 0.78,Storage time 0 day,0.042%
same,Impurity (%)/RRT relative retention time 0.89,Storage time 0 day,0.019%
same,Impurity (%)/RRT relative retention time 0.9,Storage time 0 day,0.011%
same,Impurity (%)/RRT relative retention time 1.06,Storage time 0 day,0.17%
same,Impurity (%)/RRT relative retention time 1.95,Storage time 0 day,0.019%
same,Total impurity (%),Storage time 6 h(RT),0.739%
same,Impurity (%)/RRT relative retention time 0.71,Storage time 6 h(RT),0.18%
same,Impurity (%)/RRT relative retention time 0.89,Storage time 6 h(RT),0.059%
same,Impurity (%)/RRT relative retention time 0.9,Storage time 6 h(RT),0.069%
same,Impurity (%)/RRT relative retention time 0.93,Storage time 6 h(RT),0.091%
same,Impurity (%)/RRT relative retention time 1.95,Storage time 6 h(RT),0.089%
same,Impurity (%)/RRT relative retention time 1.97,Storage time 6 h(RT),0.251%
same,Total impurity (%),Storage time 12 h(RT),0.733%
same,Impurity (%)/RRT relative retention time 0.71,Storage time 12 h(RT),0.176%
same,Impurity (%)/RRT relative retention time 0.89,Storage time 12 h(RT),0.053%
same,Impurity (%)/RRT relative retention time 0.9,Storage time 12 h(RT),0.063%
same,Impurity (%)/RRT relative retention time 0.93,Storage time 12 h(RT),0.092%
same,Impurity (%)/RRT relative retention time 1.95,Storage time 12 h(RT),0.093%
same,Impurity (%)/RRT relative retention time 1.97,Storage time 12 h(RT),0.256%
same,Total impurity (%),Storage time 18 h(RT),1.035%
same,Impurity (%)/RRT relative retention time 0.71,Storage time 18 h(RT),0.174%
same,Impurity (%)/RRT relative retention time 0.83,Storage time 18 h(RT),0.377%
same,Impurity (%)/RRT relative retention time 0.89,Storage time 18 h(RT),0.054%
same,Impurity (%)/RRT relative retention time 0.9,Storage time 18 h(RT),0.057%
same,Impurity (%)/RRT relative retention time 0.93,Storage time 18 h(RT),0.092%
same,Impurity (%)/RRT relative retention time 1.95,Storage time 18 h(RT),0.065%
same,Impurity (%)/RRT relative retention time 1.97,Storage time 18 h(RT),0.216%
same,Total impurity (%),Storage time 24 h(2-8° C.),0.608%
same,Impurity (%)/RRT relative retention time 0.71,Storage time 24 h(2-8° C.),0.175%
same,Impurity (%)/RRT relative retention time 0.83,Storage time 24 h(2-8° C.),0.189%
same,Impurity (%)/RRT relative retention time 0.89,Storage time 24 h(2-8° C.),0.053%
same,Impurity (%)/RRT relative retention time 0.9,Storage time 24 h(2-8° C.),0.064%
same,Impurity (%)/RRT relative retention time 0.93,Storage time 24 h(2-8° C.),0.088%
same,Impurity (%)/RRT relative retention time 1.06,Storage time 24 h(2-8° C.),0.039%
same,Total impurity (%),Storage time 24 h(RT),1.254%
same,Impurity (%)/RRT relative retention time 0.71,Storage time 24 h(RT),0.177%
same,Impurity (%)/RRT relative retention time 0.83,Storage time 24 h(RT),0.524%
same,Impurity (%)/RRT relative retention time 0.89,Storage time 24 h(RT),0.054%
same,Impurity (%)/RRT relative retention time 0.9,Storage time 24 h(RT),0.053%
same,Impurity (%)/RRT relative retention time 0.93,Storage time 24 h(RT),0.09%
same,Impurity (%)/RRT relative retention time 1.95,Storage time 24 h(RT),0.097%
same,Impurity (%)/RRT relative retention time 1.97,Storage time 24 h(RT),0.259%
